Literature values in patent US11439593B2, “Composition for treating onychomycosis” (NCP NewCare Products GmbH, priority 2017, dated 2022).
Read-outs that look alike come from different tables or passages of the source.

| Structure (SMILES) | stability in acidic environment (pH of about 5) | stability in acidic environment (pH of about 3) |
| --- | --- | --- |
| c1ccc(-c2ccc(C(c3ccccc3)n3ccnc3)cc2)cc1 (centres unmarked) [bifonazole] | stable | – |
| Cc1cc(C2CCCCC2)n(O)c(=O)c1 [ciclopirox] | – | stable |
| Clc1ccccc1C(c1ccccc1)(c1ccccc1)n1ccnc1 [clotrimazole] | stable | – |

Next, values leading:

| stability in acidic environment (pH of about 5) | stability in acidic environment (pH of about 3) | Structure (SMILES) |
| --- | --- | --- |
| – | stable | Clc1ccc(COC(Cn2ccnc2)c2ccc(Cl)cc2Cl)c(Cl)c1 (centres unmarked) [miconazole] |
| – | stable | CN(C/C=C/C#CC(C)(C)C)Cc1cccc2ccccc12 [terbinafine] |
